Source: US11008290B2, “Halogenated quinoline derivatives as antimicrobial agents” (University of Florida Research Foundation, Incorporated, priority 2015, dated 2021)
Values after ≈ are worked out from the molar mass of the structure shown. Values joined by “and” are separate entries in the source; they are usually repeats but may differ in a detail not shown here. Equal values may be shown once. Read-outs that look alike come from different tables or passages of the source. Marks after values point to notes of the source that are not given here. One block for each molecule: values may come before it.

Tests used:
A. baumannii = test: MIC, antibacterial profile of broxyquinoline and HQ-1 (FIG. 2A); format: cell-based, Acinetobacter baumannii
S. epidermidis = test: as above; format: cell-based; settings: Staphylococcus epidermidis
S. aureus = test: as above; format: cell-based; settings: Staphylococcus aureus
MRSA BAA-1707 = test: Calgary Biofilm Device (CBD) MBC/MBEC determination; format: cell-based, Staphylococcus aureus; settings: Table 4, CBD
Description: (§1) Biofilm eradication experiments were performed using the Calgary Biofilm Device to determine MBC/MBEC values for various compounds of interest (Innovotech, product code: 19111). The Calgary device (96-well plate with lid containing 96 total pegs to establish biofilms; 1 peg/well) was inoculated with 125 μL of a mid-log phase culture diluted 1,000-fold in tryptic soy broth with 0.5% glucose (TSBG) to establish bacterial biofilms after incubation at 37° C. for 24 hours. The lid of the Calgary device was then removed, washed and transferred to another 96-well plate containing 2-fold serial dilutions of the test compounds (the “challenge plate”). The total volume of media with compound in each well in the challenge plate was 150 μL. The Calgary device was then incubated at 37° C. for 24 hours. The lid was then removed from the challenge plate and MBC/MBEC values were determined using different final assays. […] The MBC values were determined as the concentration giving a lack of visible bacterial growth (e.g., turbidity). For determination of MBEC values, the Calgary device lid (with attached pegs/treated biofilms) was transferred to a new 96-well plate containing 150 μL of fresh TSBG media in each well and incubated for 24 hours at 37° C. to allow viable biofilms to grow and disperse resulting in turbidity after the incubation period. […] In select experiments, treated pegs from the Calgary device were removed from lead biofilm eradicators after final incubation, sonicated for 30 minutes in PBS and plated out to determine biofilm cell killing (e.g., colony forming unit per milliliter, CFU/mL).

[1] = test system: MRSA-2 planktonic cells and biofilms; test: as above; format: cell-based, Staphylococcus aureus; settings: CBD; for MBC: planktonic killing, first value of MBC/MBEC cell
Description: as §1

MRSA-2 = test: Mechanistic investigations with metal(II)-cations (MIC assay with 200 μM metal salt); format: cell-based, Staphylococcus aureus; settings: MRSA-2
Description: (§2) The minimum inhibitory concentration (MIC) for each compound was determined by the broth microdilution method as recommended by the Clinical and Laboratory Standards Institute (CLSI). In a 96-well plate, eleven two-fold serial dilutions of each compound were made in a final volume of 100 μL Luria Broth. Each well was inoculated with ˜10^5 bacterial cells at the initial time of incubation, prepared from a fresh log phase culture (OD600 of 0.5 to 1.0 depending on bacterial strain). […] The concentration range tested for each compound during this study was 0.10 to 100 μM. DMSO served as the vehicle and negative control in each microdilution MIC assay. DMSO was serially diluted with a top concentration of 1% v/v. Bacterial strains used: methicillin-resistant Staphylococcus aureus-2 (MRSA-2; clinical isolate from Shands Hospital in Gainesville, Fla.), methicillin-resistant Staphylococcus epidermidis (MRSE; ATCC 35984), vancomycin-resistant Enterococcus faecium (VRE, ATCC 700221).

[2] = test system: VRE (ATCC 700221) planktonic cells and biofilms; test: Calgary Biofilm Device (CBD) MBC/MBEC determination; format: cell-based, Enterococcus faecium; settings: CBD; for MBC: planktonic killing, first value of cell
Description: as §1

[3] = test system: MRSE (ATCC 35984) planktonic cells and biofilms; test: as above; format: cell-based, Staphylococcus epidermidis; settings: CBD; for MBC: planktonic killing, first value of cell
Description: as §1

[4] = test system: vancomycin-resistant Enterococcus faecium (VRE, ATCC 700221); test: Minimum inhibitory concentration (MIC) susceptibility assay, broth microdilution; format: cell-based
Description: as §2

[5] = test system: methicillin-resistant Staphylococcus epidermidis (MRSE; ATCC 35984); test: as above; format: cell-based; settings: for MIC: Table 2, ATCC 35984, read-out: MRSE MIC
Description: as §2

human red blood cells = test: Hemolysis assay; format: cell-based
Description: Freshly drawn human red blood cells (hRBC with ethylenediaminetetraacetic acid (EDTA) as an anticoagulant) were washed with Tris-buffered saline (0.01M Tris-base, 0.155M sodium chloride (NaCl), pH 7.2) and centrifuged for 5 minutes at 3500 rpm. The washing was repeated three times with the buffer. In 96-well plate, the test compounds were added to the buffer. […] The plate was then incubated for 1 hour at 37° C. After incubation, the plate is centrifuged for 5 minutes at 3500 rpm. Then 80 μL of the supernatant were transferred to another 96-well plate and the Optical Density (OD) was read at 405 nm. […] The percent of hemolysis was calculated as (OD405 of the compound-OD405 DMSO)/(OD405 Triton X-OD405 buffer).

[6] = test system: methicillin-resistant Staphylococcus aureus-2 (MRSA-2; clinical isolate); test: Minimum inhibitory concentration (MIC) susceptibility assay, broth microdilution; format: cell-based; settings: Staphylococcus, MRSA
Description: as §2

[7] = test system: MRSA-2, MRSE 35984, VRE 700221; test: MIC assays, range stated over the three drug-resistant pathogens; format: cell-based; settings: range over MRSA-2, MRSE, read-out: MIC against these drug-resistant pathogens
Description: as §2

[8] = Table 2, biofilm eradication, second value of cell

SMILES: Oc1c(Br)cc(Br)c2cccnc12 [Broxyquinoline]
MIC (A. baumannii; Acinetobacter baumannii, read-out: MIC): 12.5 µM and 4 µg/mL | MIC (S. epidermidis): 12.5 µM and 4 µg/mL | MIC (S. aureus): 12.5 µM and 4 µg/mL

SMILES: Cc1ccc2c(Br)cc(Br)c(O)c2n1 [HQ-1, reference compound]
MRSA BAA-1707 MBEC (MRSA BAA-1707; biofilm eradication, second value of cell): 46.9 µM | MBC (MRSA BAA-1707; planktonic killing, first value of cell, read-out: MRSA BAA-1707 MBC): 62.5 µM (≈ 19.8 µg/mL) | MRSA-2 Clinical Isolate MBEC ([1]; Table 2, biofilm eradication, second value of MBC/MBEC cell): 188 µM | MBC ([1]; Table 2, read-out: MRSA-2 Clinical Isolate MBC): 23.5 µM (≈ 7.45 µg/mL) | MRSA-2 MBEC ([1]; Table 3, biofilm eradication, second value of MBC/MBEC cell): 188 µM | MBC ([1]; Table 3, read-out: MRSA-2 MBC): 23.5 µM (≈ 7.45 µg/mL) | MIC w/Fe^2+ (MRSA-2; 200 μM ammonium iron (II) sulfate hexahydrate): >100^b μM and >100^c μM | MIC w/Cu^2+ (MRSA-2; 200 μM copper (II) sulfate): 25^b μM and 25^c μM | MIC (MRSA-2; 200 μM magnesium (II) sulfate, read-out: MIC w/Mg^2+): 1.56 µM | MIC w/Zn^2+ (MRSA-2; 200 μM zinc (II) chloride): 0.15^a,b μM and 0.1^a,c μM | VRE ATCC 700221 MBEC [2, 8]: 1.5 µM | MBC ([2]; Table 2, read-out: VRE ATCC 700221 MBC): 2.0 µM (≈ 0.634 µg/mL) | VRE MBEC ([2]; Table 3, biofilm eradication, second value of cell, footnote c = lowest concentration tested): 1.5 µM | MBC ([2]; Table 3, footnote c = lowest concentration tested, read-out: VRE MBC): 2.0 µM (≈ 0.634 µg/mL) | MIC (A. baumannii): 32 µg/mL | MIC (A. baumannii; read-out: MIC): 100 µM | MRSE ATCC 35984 MBEC [3, 8]: 93.8 µM | MBC ([3]; Table 2, read-out: MRSE ATCC 35984 MBC): 31.3 µM (≈ 9.92 µg/mL) | MRSE MBEC ([3]; Table 3, biofilm eradication, second value of cell): 93.8 µM | MBC ([3]; Table 3, read-out: MRSE MBC): 31.3 µM (≈ 9.92 µg/mL) | VRE MIC ([4]; Table 3): 2.35^a μM | MIC [5]: 0.39 µM (≈ 0.124 µg/mL) | MRSE MIC ([5]; Table 3): 0.30^a μM | % Haemolysis at 200 μM (human red blood cells; Table 2, human red blood cells, 1 hour at 37° C.): ≤1% | % Haemolysis at 200 μM (human red blood cells; Table 3, human red blood cells): ≤1%

MIC (MRSA-2; Staphylococcus aureus, 200 μM ammonium iron (II) sulfate hexahydrate, read-out: MIC w/Fe^2+): > 100 µM | MIC (MRSA-2; Staphylococcus aureus, 200 μM copper (II) sulfate, read-out: MIC w/Cu^2+): > 100 µM | MIC (MRSA-2; Staphylococcus aureus, 200 μM magnesium (II) sulfate, read-out: MIC w/Mg^2+): > 100 µM | MIC (MRSA-2; Staphylococcus aureus, 200 μM zinc (II) chloride, read-out: MIC w/Zn^2+): > 100 µM | MIC ([6]; Table 2, 2 to 6 independent experiments, read-out: MRSA-2 MIC): 18.8 µM (≈ 10.9 µg/mL) | MIC ([6]; read-out: MIC): > 100 µM | MIC ([4]; Table 2, ATCC 700221, read-out: VRE MIC): 75 µM (≈ 43.5 µg/mL) | MIC ([5]; Staphylococcus epidermidis): 9.38 µM (≈ 5.44 µg/mL) | MIC [7]: 9.38 to 75 µM (≈ 5.44 to 43.5 µg/mL)
SMILES: Cc1c(Br)cc(NCc2ccc3c(Br)cc(Br)c(O)c3n2)cc1Br [HQ-7]
MBC ([1]; Staphylococcus aureus, MRSA, Table 2, read-out: MRSA-2 Clinical Isolate MBC): 500 µM (≈ 290 µg/mL) | MBC ([2]; Enterococcus, Table 2, read-out: VRE ATCC 700221 MBC): 125 µM (≈ 72.5 µg/mL) | MBC ([3]; Staphylococcus epidermidis, Table 2, read-out: MRSE ATCC 35984 MBC): 250 µM (≈ 145 µg/mL) | % Haemolysis at 200 μM (human red blood cells; human, 1 h, pH 7.2): ≤1%
